Experiments:
[1] = system: Botrytis cinerea; test: Example A: in vivo preventive test on Botrytis cinerea (grey mould), gherkin; details: gherkin plants, preventive spray, evaluated 4 to 5 days after inoculation, read-out: efficacy
Method: Example A: In Vivo Preventive Test on Botrytis cinerea (Grey Mould) [table] The active ingredients are made soluble and homogenized in a mixture of Dimethyl sulfoxide/Acetone//Tween® 80 and then diluted in water to the desired concentration. The young plants of gherkin are treated by spraying the active ingredient prepared as described above. Control plants are treated only with an aqueous solution of Acetone/Dimethyl sulfoxide/Tween® 80. After 24 hours, the plants are contaminated by spraying the leaves with an aqueous suspension of Botrytis cinerea spores. The contaminated gherkin plants are incubated for 4 to 5 days at 17° C. and at 90% relative humidity. The test is evaluated 4 to 5 days after the inoculation. 0% means an efficacy which corresponds to that of the control plants while an efficacy of 100% means that no disease is observed.

[2] = system: Uromyces appendiculatus; test: Example E: in vivo preventive test on Uromyces appendiculatus (bean rust); details: 264 h, 500 ppm of active ingredient, bean plants, preventive spray, evaluated 11 days after inoculation, read-out: efficacy
Method: Example E: In Vivo Preventive Test on Uromyces appendiculatus (Bean Rust) [table] The active ingredients are made soluble and homogenized in a mixture of Dimethyl sulfoxide/Acetone//Tween® 80 and then diluted in water to the desired concentration. The young plants of bean are treated by spraying the active ingredient prepared as described above. Control plants are treated only with an aqueous solution of Acetone/Dimethyl sulfoxide/Tween® 80. After 24 hours, the plants are contaminated by spraying the leaves with an aqueous suspension of Uromyces appendiculatus spores. The contaminated bean plants are incubated for 24 hours at 20° C. and at 100% relative humidity and then for 10 days at 20° C. and at 70-80% relative humidity. The test is evaluated 11 days after the inoculation. 0% means an efficacy which corresponds to that of the control plants while an efficacy of 100% means that no disease is observed.

[3] = system: Alternaria solani; test: Example F: in vivo preventive test on Alternaria test (tomatoes); details: 72 h, 100 ppm of active ingredient, preventive spray, evaluated 3 days after inoculation, read-out: efficacy
Method: Example F: In Vivo Preventive Test on Alternaria Test (Tomatoes) [table] To produce a suitable preparation of active compound, 1 part by weight of active compound is mixed with the stated amounts of solvent and emulsifier, and the concentrate is diluted with water to the desired concentration. To test for preventive activity, young plants are sprayed with the preparation of active compound at the stated rate of application. After the spray coating has dried on, the plants are inoculated with an aqueous spore suspension of Alternaria solani. The plants are then placed in an incubation cabinet at approximately 20° C. and a relative atmospheric humidity of 100%. The test is evaluated 3 days after the inoculation. 0% means an efficacy which corresponds to that of the untreated control while an efficacy of 100% means that no disease is observed.

[4] = system: Blumeria graminis f.sp. hordei; test: Example I: in vivo preventive Blumeria test (barley); details: 168 h, 500 ppm of active ingredient, preventive spray, evaluated 7 days after inoculation, read-out: efficacy
Method: Example I: In Vivo Preventive Blumeria Test (Barley) [table] To produce a suitable preparation of active compound, 1 part by weight of active compound or active compound combination is mixed with the stated amounts of solvent and emulsifier, and the concentrate is diluted with water to the desired concentration. To test for preventive activity, young plants are sprayed with the preparation of active compound or active compound combination at the stated rate of application. After the spray coating has been dried, the plants are dusted with spores of Blumeria graminis f.sp. hordei. The plants are placed in the greenhouse at a temperature of approximately 18° C. and a relative atmospheric humidity of approximately 80% to promote the development of mildew pustules. The test is evaluated 7 days after the inoculation. 0% means an efficacy which corresponds to that of the untreated control, while an efficacy of 100% means that no disease is observed.

[5] = system: Leptosphaeria nodorum; test: Example J: in vivo preventive Leptosphaeria nodorum test (wheat); details: Parastagonospora nodorum, 192 h, 500 ppm of active ingredient, preventive spray, evaluated 8 days after inoculation, read-out: efficacy
Method: Example J: In Vivo Preventive Leptosphaeria nodorum Test (Wheat) [table] To produce a suitable preparation of active compound, 1 part by weight of active compound or active compound combination is mixed with the stated amounts of solvent and emulsifier, and the concentrate is diluted with water to the desired concentration. To test for preventive activity, young plants are sprayed with the preparation of active compound or active compound combination at the stated rate of application. After the spray coating has been dried, the plants are sprayed with a spore suspension of Leptosphaeria nodorum. The plants remain for 48 hours in an incubation cabinet at approximately 20° C. and a relative atmospheric humidity of approximately 100%. The plants are placed in the greenhouse at a temperature of approximately 25° C. and a relative atmospheric humidity of approximately 80%. The test is evaluated 8 days after the inoculation. 0% means an efficacy which corresponds to that of the untreated control, while an efficacy of 100% means that no disease is observed.

[6] = system: Septoria tritici; test: Example L: in vivo preventive Septoria tritici test (wheat); details: Zymoseptoria tritici, 504 h, 500 ppm of active ingredient, preventive spray, evaluated 21 days after inoculation, read-out: efficacy
Method: Example L: In Vivo Preventive Septoria tritici Test (Wheat) [table] To produce a suitable preparation of active compound, 1 part by weight of active compound or active compound combination is mixed with the stated amounts of solvent and emulsifier, and the concentrate is diluted with water to the desired concentration. To test for preventive activity, young plants are sprayed with the preparation of active compound or active compound combination at the stated rate of application. After the spray coating has been dried, the plants are sprayed with a spore suspension of Septoria tritici. The plants remain for 48 hours in an incubation cabinet at approximately 20° C. and a relative atmospheric humidity of approximately 100% and afterwards for 60 hours at approximately 15° C. in a translucent incubation cabinet at a relative atmospheric humidity of approximately 100%. The plants are placed in the greenhouse at a temperature of approximately 15° C. and a relative atmospheric humidity of approximately 80%. The test is evaluated 21 days after the inoculation. 0% means an efficacy which corresponds to that of the untreated control, while an efficacy of 100% means that no disease is observed.

[7] = system: Sphaerotheca fuliginea; test: Example M: in vivo preventive test on Sphaerotheca (cucumbers); comparison of phenoxy-pyridyl compounds vs. known phenoxy-phenyl compounds; details: Podosphaera fuliginea, 168 h, rate of application 10 ppm, evaluated 7 days after inoculation, read-out: Efficacy in %
Method: Example M: In Vivo Preventive Test on Sphaerotheca (Cucumbers); Comparison of Phenoxy-pyridyl Compounds According to the Invention Vs. Known Phenoxy-phenyl Compounds [table] To produce a suitable preparation of active compound, 1 part by weight of active compound is mixed with the above stated amounts of solvent and emulsifier, and the concentrate is diluted with water to the desired concentration. To test for preventive activity, young plants are sprayed with the preparation of active compound at the stated rate of application. After the spray coating has dried on, the plants are inoculated with an aqueous spore suspension of Sphaerotheca fuliginea. The plants are then placed in a greenhouse at approximately 23° C. and a relative atmospheric humidity of approximately 70%. The test is evaluated 7 days after the inoculation. 0% means an efficacy which corresponds to that of the untreated control, while an efficacy of 100% means that no disease is observed. [table]

Row | SMILES | pest or weed control [1] [%] | pest or weed control at 500 ppm [2] [%] | pest or weed control at 100 ppm [3] [%] | pest or weed control at 500 ppm [4] [%] | pest or weed control at 500 ppm [5] [%] | pest or weed control at 500 ppm [6] [%] | pest or weed control at 10 ppm [7] [%]
1 | CC(O)(Cn1cncn1)c1ccc(Oc2ccc(Cl)cc2)nc1C(F)(F)F (stereo not shown) [I.01, 2-[6-(4-chlorophenoxy)-2-(trifluoromethyl)-3-pyridyl]-1-(1,2,4-triazol-1-yl)propan-2-ol] | 90 to 100 | 90 to 100 | 90 to 100 | 90 to 100 | 90 to 100 | 90 to 100 | 100
2 | CC(O)(Cn1cncn1)c1cnc(Oc2ccc(Cl)cc2)cc1C(F)(F)F (stereo not shown) [I.02, 2-[6-(4-chlorophenoxy)-4-(trifluoromethyl)-3-pyridyl]-1-(1,2,4-triazol-1-yl)propan-2-ol] | – | 90 to 100 | 90 to 100 | 90 to 100 | 90 to 100 | 90 to 100 | –
3 | OC(Cn1cncn1)c1ccc(Oc2ccc(Cl)cc2)nc1C(F)(F)F (stereo not shown) [I.03, 1-[6-(4-chlorophenoxy)-2-(trifluoromethyl)-3-pyridyl]-2-(1,2,4-triazol-1-yl)ethanol] | 90 to 100 | 90 to 100 | 80 to 89 | – | 80 to 89 | 90 to 100 | –
4 | CC(O)(Cn1cncn1)c1cnc(Oc2ccccc2)cc1Cl (stereo not shown) [I.05] | 90 to 100 | 90 to 100 | 90 to 100 | 90 to 100 | 80 to 89 | 90 to 100 | 71
5 | OC(Cn1cncn1)c1ccc(Oc2ccc(Cl)cc2)nc1Cl (stereo not shown) [I.14] | 90 to 100 | 90 to 100 | 90 to 100 | 90 to 100 | 70 to 79 | – | 83
6 | Cc1ccc(Oc2ccc(C(O)Cn3cncn3)c(Cl)n2)cc1Cl (stereo not shown) [I.16] | 90 to 100 | 90 to 100 | 90 to 100 | – | – | – | 77

Source: patent publication US10485236B2, “Triazole derivatives, intermediates thereof and their use as fungicides” (Bayer CropScience Aktiengesellschaft, priority 2015, dated 2019)
